Data on nine compounds can be found in patent US20250127800A1, “PYRIMIDINE OR PYRIDINE DERIVATIVE AND MEDICINAL USE THEREOF” (SIGNET THERAPEUTICS INC., priority 2021, published 2025).

Bounds are passed on as bounds.

The term IC50 denotes the point on the concentration scale where inhibition reaches its midpoint. A higher IC50 goes with lower potency. As a reminder, the AUC(0-inf) is total exposure, with the tail of the curve extrapolated. High values mean high exposure, low ones low exposure. By AUC(0-t) is commonly meant the area under the concentration-time curve up to a stated or last time point. Lower therefore signals low exposure. A word on the Cmax: it is the maximum level reached in the sampled fluid or tissue. One may read the Tmax as the time from dosing to the highest level. By half-life is commonly meant the time in which the quantity being followed falls by half. The low end stands for rapid decline, the high end for slow decline.

For series [1], the system named is FAK (p-FAK 397). Briefly: Western Blot of phosphorylated FAK in DGC organoid model. It counts as cell-based. To be noted: 48 hours, dose-dependent. As for the experimental part: (§1) Experimental procedures: Organoids were amplified in 6-well plates (7 Matrigel aliquots per well) for 2-3 days prior to evaluation. After passage, 1000 cells were inoculated in 5 μl Matrigel aliquot into each well containing 100 μl 50% L-WRN medium in a 96-well plate. Organoids were cultured for 24 hours, followed by addition of the compounds. Compounds were dissolved in DMSO as stock solution (with a final concentration of […]), which was then diluted with DMSO to 1000× concentration of the testing concentration. Culture medium was added to the stock solution to dilute to the testing concentration. The diluted solution was added to the culture plate. Once compound was added, culture medium was no longer added, and no further compound added. After the organoids were cultured for a specified number of days, the effects of compounds were evaluated by the following three methods, each using DMSO as negative control.
(§2) 2. After cell culture in accordance with the above procedure and culture with compounds for 48 hours, the cells were lysed, and proteins were extracted and tested by Western Blot. After gel imaging, gray values of protein bands were analyzed to investigate the effects of the compounds on phosphorylated FAK and activated YAP in the organoid model. (For detailed methods, please refer to Haisheng Zhang, Cancer Discovery, 2020).

The target of series [2] is T1, FAK (Homo sapiens (Human), UniProt Q05397). Briefly: Time-dependent FAK kinase inhibition activity test. It counts as biochemical.
T1 sequence (Q05397 whole entry, species assumed): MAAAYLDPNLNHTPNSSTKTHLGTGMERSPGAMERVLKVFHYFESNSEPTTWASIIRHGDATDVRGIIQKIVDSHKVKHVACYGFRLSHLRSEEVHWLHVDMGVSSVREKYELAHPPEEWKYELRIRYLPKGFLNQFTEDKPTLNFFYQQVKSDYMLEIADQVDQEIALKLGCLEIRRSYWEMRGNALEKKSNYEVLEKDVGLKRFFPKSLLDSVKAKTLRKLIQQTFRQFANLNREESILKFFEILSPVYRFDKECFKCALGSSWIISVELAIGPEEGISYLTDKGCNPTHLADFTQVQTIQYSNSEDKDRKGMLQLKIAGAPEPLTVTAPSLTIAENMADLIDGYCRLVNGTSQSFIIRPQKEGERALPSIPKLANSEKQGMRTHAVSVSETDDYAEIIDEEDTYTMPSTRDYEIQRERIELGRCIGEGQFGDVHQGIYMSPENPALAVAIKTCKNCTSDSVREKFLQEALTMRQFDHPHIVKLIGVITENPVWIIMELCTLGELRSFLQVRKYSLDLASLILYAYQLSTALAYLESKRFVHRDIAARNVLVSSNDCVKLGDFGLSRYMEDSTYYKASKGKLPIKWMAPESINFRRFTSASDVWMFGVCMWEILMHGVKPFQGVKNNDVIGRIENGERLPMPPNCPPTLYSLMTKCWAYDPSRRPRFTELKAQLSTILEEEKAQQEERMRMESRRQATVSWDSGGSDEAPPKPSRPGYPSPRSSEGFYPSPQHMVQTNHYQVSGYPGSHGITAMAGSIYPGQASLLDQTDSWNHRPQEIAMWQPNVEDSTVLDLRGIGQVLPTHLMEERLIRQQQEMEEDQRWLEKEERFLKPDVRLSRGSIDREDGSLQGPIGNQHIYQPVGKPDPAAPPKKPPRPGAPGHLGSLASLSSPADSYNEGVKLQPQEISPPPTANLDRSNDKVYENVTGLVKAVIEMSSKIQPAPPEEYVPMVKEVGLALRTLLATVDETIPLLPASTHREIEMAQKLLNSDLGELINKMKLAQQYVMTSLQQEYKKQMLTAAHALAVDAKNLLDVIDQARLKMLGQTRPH
In series [3] the test system is NUGC4 cells. Briefly: Cell proliferation inhibition, NUGC4 (CELL TITER-GLO). In kind it is cell-based. To be noted: Homo sapiens, NUGC-4, 96 h; NUGC4, 4 days. Here is the method: (§3) • a. SNU-668 cells (catalog number: 00668, KCLB) or NUGC4 cells (catalog number: 0834, JCRB) were allowed to grow to 70%-80% confluence, the supernatant of the culture medium was pipetitted off, rinsed once with PBS and then pipetitted off; • b. To a 10 cm dish was added 1 mL of 0.25% trypsin, votexed to homogenity and then place into incubator for digestion for 2-3 min; • c. The culture dish is removed from the incubator added with 2-3 mL complete culture medium to terminate the digestion, pipetitted into a 15 mL centrifuge tube, and then centrifuged in centrifuge at 1000 rpm for 5 minutes; • d. The supernatant was pipetitted off, and the cells were resuspended in 1 mL of complete culture medium, and then counted; • e. 1000 cells were plated into each well of 96-well plate, and then cultured overnight in a cell incubator, 2) Cell Administration with Compounds • a. Compounds to be tested were dissolved and votexed to homogeneity; • b. Each compound was serielly diluted in 1:3 ratio from 1 mM stock solution to 9 gradient concentrations; • c. The plate seeded with cells was taken out from the incubator, pipetitted off culture medium, and then added slowly in each well with 100 μL fresh culture medium by multi-channel pipette. Wells are labeled by corresponding compounds and concentrations, and then gently added with 100 μL compound-containing culture medium along the well wall by multi-channel pipette; • d. After the addition to all wells, the plate was gently shaken to allow homogeneous spread of the compound, and then put back to the incubator, with time recorded;
(§4) 4 days after the addition of compounds, the culture medium was removed and mixed at 100 μL from each well with cell titer-glo testing liquid in 1:1 ratio. The mixture was incubated with shaking at room temperature for 10 min and then counted with Plate reader.
On the technique in general: Cellular ATP, detected with luciferase, serves as a proxy for viable cell number.

For series [4], the system named is activated YAP (non-p-YAP). Put plainly: Western Blot of activated YAP in DGC organoid model. It counts as cell-based. The conditions noted are these: 48 hours, dose-dependent. As for the experimental part:
as §1, §2
A general note: Immunoblotting shows a protein as a band on a membrane.

Series [5] has as its system SNU-668 cells. Put plainly: Cell proliferation inhibition, SNU-668 (CELL TITER-GLO). It counts as cell-based. To be noted: Homo sapiens, SNU668, 96 h; SNU-668, 4 days. Here is the method:
as §3, §4

Series [6] addresses T1, FAK. Briefly: In vitro enzymatic inhibitory activity, FAK kinase (HTRF KinEASE-TK). To be noted: FAK kinase, enzyme pre-incubation 15 minutes at 25° C. (In general: TR-FRET usually uses a lanthanide donor and a delayed reading to cut background.)
The subject of series [7] is diffuse-type gastric cancer (DGC) organoid. Put plainly: Cell morphology in diffuse-type gastric cancer (DGC) organoid model. In kind it is cell-based. To be noted: 500 nM compound. As for the experimental part:
as §1
1. There was a difference in cell morphology between normal cells and the diffuse-type gastric cancer (DGC) organoid model. Normal organoids have hollow spheroid shape, while organoids of diffuse-type gastric cancer have solid grape-like irregular shape. Therefore, the observations of the effect of drugs on cell morphology may be one of the important characteristics for evaluating drug efficacy.

The target of series [8] is YAP (non-p-YAP) (Homo sapiens (Human), UniProt P46937). Put plainly: Western blot of YAP activity in SNU-668 cell line model. To be noted: SNU668, 24 hours. It counts as cell-based. As for the experimental part:
• a. SNU-668 cells (catalog number: 00668, KCLB) were allowed to grow to 70%-80% confluence, the supernatant of the culture medium was pipetitted off, rinsed once with PBS and then pipetitted off; • b. To a 10 cm dish was added 2 mL trypsin, and digested in an incubator for 3-5 min; • c. The culture dish is removed from the incubator added with 5 mL 1640 medium (containing 10% FBS) to terminate the digestion, pipetitted into a 15 mL centrifuge tube, and then centrifuged in centrifuge at 1000 rpm for 5 minutes; • d. The supernatant was pipetitted off, added with 5 mL 1640 medium (containing 10% FBS). the cells were resuspended thoroughly and mix well, then counted; • e. 1.5×10^5 cells were seeded into each well of 12-well plate, and then cultured in a cell incubator for 24 h. 2) Cell Treatment with Compounds • a. Stock solutions of the compounds to be tested (1 mM) were diluted in DMSO, and blown and nixed several times to homogeneity; • b. The plate seeded with cells was taken out from the incubator, gently added in wells with 1 ul 1 mM stocks (1000× diluted) along the well wall, and then gently shaken immediately to homogeneity; • c. After the addition to all wells, the plate was gently shaken to allow homogeneous spread of the compound, and then put back to the incubator, with time recorded; Samples were collected after 24 hours.
• a. […]

Series [9] is described as follows: In vivo pharmacokinetic evaluation in SD rats, gavage. The conditions noted are these: rat, plasma, po, male SD rats, 5 mg/kg. As for the experimental part:
Three male SD rats were administered with compounds in a single dose of 5 mg/kg or 3 mg/kg by gavage, and blood samples were collected before administration and at 0.25, 0.5, 1, 2, 4, 6, 8, and 24 h after administration.
Preparation of solutions of compounds to be dosed at 5 mg/kg: 5.5 mg compound (converted based on purity) was accurately weighed and added to 0.55 mL of DMSO. Clear solutions were obtained after stirring and sonication. 0.5 mL of each of the above solutions was added with 1 mL of Solutol, stirred for 1 minute; and then added with 8.5 mL of physiological saline and stirred for 1 minute, to obtain a clear solution at 0.5 mg/mL concentration.
Preparation of a solution of compounds to be dosed at 3 mg/kg: 3.6 mg compound (converted according to purity) was accurately weighed and added to 0.6 mL of DMSO. Clear solutions were obtained after stirring and sonication. 0.5 mL of each of the above solutions was added with 1 mL of Solutol and stirred for 1 minute; and then added with 8.5 mL of physiological saline and stirred for 1 minute, to obtain a clear solution at 0.3 mg/mL concentration.
Rats were administered the formulations prepared in step 2 by gavage at a dose of 10 mL/kg. The rats were fasted overnight before the administration and resumed feeding 4 hours after administration. Throughout the entire experiment, the animals were free to access drinking water.
The plasma concentration was measured using LC-MS/MS method.

On to `C=CC(=O)N1CCCC(c2cccc(NCc3ccc(Nc4ncc(C(F)(F)F)c(Nc5ccccc5C(=O)NC)n4)cc3)c2)C1` (stereo not drawn) [Compound 6, 2-((2-((4-(((3-(1-acryloylpiperidin-3-yl)phenyl)amino)methyl)phenyl)amino)-5-(trifluoromethyl)pyrimidin-4-yl)amino)-N-methylbenzamide], for which the “inhibition of phosphorylation of FAK (p-FAK 397)” value (shortened to “inhibition … (p-FAK 397)”) in series [1] is given as “can inhibit the phosphorylation of FAK (p-FAK 397)”. Also, the IC50 in series [2] (enzyme pre-incubation 60 minutes at 25° C.) amounted to 0.662 nM; in series [3] it was 20 nM; in [5], 50 nM; in [6], 2.68 nM. Also, the “effective inhibition time on the kinase activity of FAK” value in series [2] (pre-incubation 0, 15 and 60 minutes, compared to defactinib) is given as “longer effective inhibition time”. In addition, the “inhibition of activated YAP (non-p-YAP)” value in series [4] is given as “inhibit the activated YAP (non-p-YAP)”.

As for `C=CC(=O)N1CCCC1c1ccc(NCc2ccc(Nc3ncc(C(F)(F)F)c(Nc4ccccc4C(=O)NC)n3)cc2)cc1` (stereo not drawn) [Compound 9, 2-((2-((4-(((4-(1-acryloylpyrrolidin-2-yl)phenyl)amino)methyl)phenyl)amino)-5-(trifluoromethyl)pyrimidin-4-yl)amino)-N-methylbenzamide], in series [7], the “effect on cell morphology of DGC organoid” value was “significantly better effects than defactinib and IN-10018”. Further, in [1], the “inhibition … (p-FAK 397)” value is given as “can inhibit the phosphorylation of FAK (p-FAK 397)”. Moreover, the “inhibition of activated YAP (non-p-YAP)” value in [4] is reported as “inhibit the activated YAP (non-p-YAP)”. The same compound had an IC50 in series [6] of 3.71 nM.

On to `C=CC(=O)N1CCCC(c2cccc(NCc3ccc(Nc4ncc(C(F)(F)F)c(Nc5ccccc5C(=O)NOC)n4)cc3)c2)C1` (stereo not drawn) [Compound 11, 2-((2-((4-(((3-(1-acryloylpiperidin-3-yl)phenyl)amino)methyl)phenyl)amino)-5-(trifluoromethyl)pyrimidin-4-yl)amino)-N-methoxybenzamide], for which the “effect on cell morphology of DGC organoid” value in series [7] was “significantly better effects than defactinib and IN-10018”. For the same compound, the “inhibition … (p-FAK 397)” value in series [1] was “can inhibit the phosphorylation of FAK (p-FAK 397)”. The IC50 was 90 nM in [3] and 5.67 nM in series [6]. Besides, the “inhibition of activated YAP (non-p-YAP)” value in series [4] is on record as “inhibit the activated YAP (non-p-YAP)”.

`C=CC(=O)N1CCCC(c2cccc(NCc3ccc(Nc4ncc(C(F)(F)F)c(Nc5cccc(F)c5C(=O)NC)n4)cc3)c2)C1` (stereo not drawn) [Compound 13, 2-((2-((4-(((3-(1-acryloylpiperidin-3-yl)phenyl)amino)methyl)phenyl)amino)-5-(trifluoromethyl)pyrimidin-4-yl)amino)-6-fluoro-N-methylbenzamide]: the “inhibition … (p-FAK 397)” value in series [1] is “can inhibit the phosphorylation of FAK (p-FAK 397)”. Besides, the “inhibition of activated YAP (non-p-YAP)” value in series [4] is recorded as “inhibit the activated YAP (non-p-YAP)”. Also, the IC50 in series [6] is 19.8 nM.

With `C=CC(=O)N1CCCC(c2cccc(NCc3ccc(Nc4ncc(C(F)(F)F)c(Nc5ccccc5S(=O)(=O)NC(C)C)n4)cc3)c2)C1` (stereo not drawn) [Compound 19, 2-((2-((4-(((3-(1-acryloylpiperidin-3-yl)phenyl)amino)methyl)phenyl)amino)-5-(trifluoromethyl)pyrimidin-4-yl)amino)-N-isopropylbenzenesulfonamide], the results for the IC50 in [3], in series [5] and in [6] were 90 nM, 210 nM and 10.4 nM, respectively.

In the case of `C=CC(=O)N1CCCC(c2cccc(NCc3ccc(Nc4ncc(C(F)(F)F)c(Nc5ccccc5S(=O)(=O)NC)n4)cc3)c2)C1` (stereo not drawn) [Compound 30, 2-((2-((4-(((3-(1-acryloylpiperidin-3-yl)phenyl)amino)methyl)phenyl)amino)-5-(trifluoromethyl)pyrimidin-4-yl)amino)-N-methylbenzenesulfonamide], the IC50 in series [5] was determined as 90 nM; in series [6] it was 3.75 nM.

For `C#CC(=O)N1CCCC(c2cccc(NCc3ccc(Nc4ncc(C(F)(F)F)c(Nc5ccccc5C(=O)NC)n4)cc3)c2)C1` (stereo not drawn) [Compound 31], the results for the IC50 in series [3] and in series [5] were 20 nM and below 10 nM, respectively.

For `CNC(=O)c1ccc(Nc2ncc(C(F)(F)F)c(NCc3nccnc3N(C)S(C)(=O)=O)n2)cc1` [Defactinib, reference compound], in series [8], the “inhibition of YAP activity (non-p-YAP)” value is listed as “no inhibiting effect on YAP activity”. The same compound showed an IC50 in [3] of 1370 nM. Besides, in series [9], the AUC(0-inf) is 0.441 µM·h, the AUC(0-t) was 0.424 µM·h, the Cmax is 99.5 nM and the Tmax stood at 4 h. The compound further gave a half-life in series [9] of 1.2 h.

As to `COc1cc(C(=O)NC2CCN(C)CC2)c(F)cc1Nc1ncc(C(F)(F)F)c(Oc2cccc3c2C(=O)N(C)C3)n1` [IN10018, reference compound], the “inhibition of YAP activity (non-p-YAP)” value in series [8] was “no inhibiting effect on YAP activity”. Besides, the values for the IC50 in [3] and in series [5] were 3500 nM and 8400 nM, respectively.
